This experiment has as its target T1, Complex I (NADH dehydrogenase) (Homo sapiens, UniProt P49821).
T1 construct: gene NDUFV1
Conditions: optimal decylubiquinone as acceptor, 30 °C, '+' printed for ±.

Like-named read-outs stand apart in the source and are kept apart here.

T1 sequence (P19404 33-249): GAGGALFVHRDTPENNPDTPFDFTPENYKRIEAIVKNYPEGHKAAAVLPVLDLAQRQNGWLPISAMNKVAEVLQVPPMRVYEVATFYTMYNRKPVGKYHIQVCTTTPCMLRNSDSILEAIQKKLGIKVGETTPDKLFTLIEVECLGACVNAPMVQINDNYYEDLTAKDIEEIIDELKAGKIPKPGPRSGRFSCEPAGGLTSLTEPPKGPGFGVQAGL
T1 sequence (P28331 24-727, further chain): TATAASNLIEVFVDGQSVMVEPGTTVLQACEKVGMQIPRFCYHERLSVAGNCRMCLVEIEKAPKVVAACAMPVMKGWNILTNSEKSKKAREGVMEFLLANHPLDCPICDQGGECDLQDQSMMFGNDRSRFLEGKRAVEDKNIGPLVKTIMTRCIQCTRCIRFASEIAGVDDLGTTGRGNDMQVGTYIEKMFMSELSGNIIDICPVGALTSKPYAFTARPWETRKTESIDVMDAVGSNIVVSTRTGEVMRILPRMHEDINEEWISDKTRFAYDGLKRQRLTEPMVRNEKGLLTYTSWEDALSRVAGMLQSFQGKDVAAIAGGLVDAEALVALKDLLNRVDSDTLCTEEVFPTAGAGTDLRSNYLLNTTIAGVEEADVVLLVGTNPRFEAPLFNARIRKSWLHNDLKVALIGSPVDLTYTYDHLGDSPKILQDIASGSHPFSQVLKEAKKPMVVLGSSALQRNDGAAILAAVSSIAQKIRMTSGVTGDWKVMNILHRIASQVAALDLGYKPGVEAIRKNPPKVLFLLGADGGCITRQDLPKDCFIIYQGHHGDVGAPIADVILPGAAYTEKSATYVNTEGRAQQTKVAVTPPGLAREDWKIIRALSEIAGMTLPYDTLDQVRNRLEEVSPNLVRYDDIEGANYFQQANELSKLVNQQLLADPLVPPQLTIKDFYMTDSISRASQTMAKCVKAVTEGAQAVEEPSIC
T1 sequence (P49821 21-464): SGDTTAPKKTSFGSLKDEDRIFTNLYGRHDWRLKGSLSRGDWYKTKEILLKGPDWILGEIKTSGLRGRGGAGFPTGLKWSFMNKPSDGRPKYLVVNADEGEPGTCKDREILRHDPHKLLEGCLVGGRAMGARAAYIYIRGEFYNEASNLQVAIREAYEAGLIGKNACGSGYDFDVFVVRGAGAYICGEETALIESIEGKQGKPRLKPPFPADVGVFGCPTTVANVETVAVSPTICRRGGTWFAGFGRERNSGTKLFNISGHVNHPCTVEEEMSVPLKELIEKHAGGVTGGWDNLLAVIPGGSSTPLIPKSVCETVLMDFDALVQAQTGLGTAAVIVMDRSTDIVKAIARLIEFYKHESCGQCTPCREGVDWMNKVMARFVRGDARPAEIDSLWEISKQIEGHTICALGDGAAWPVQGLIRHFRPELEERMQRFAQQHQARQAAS

As for `NC(=O)C1=CN([C@@H]2O[C@H](COP(=O)(O)OP(=O)(O)OC[C@H]3O[C@@H](n4cnc5c(N)ncnc54)[C@H](O)[C@@H]3O)[C@@H](O)[C@H]2O)C=CC1` [NADH], the “KM^NADH” value (EBV-transformed normal lymphoblastoid HLB cells) is reported as 1.8+0.1 µM; the “KM^NADH” value (fibrosarcoma HT1080C cells) is 5+2 µM; the “KM^NADH” value (normal prostate epithelial PrEC cells) is on record as 4+0.5 µM; the “KM^NADH” value (prostate cancer cells PC-3, DU145 and LNCaP (one common value printed)) was 20+2.5 µM.

Values taken from paper PMC3738524, “Bioenergetic and Antiapoptotic Properties of Mitochondria from Cultured Human Prostate Cancer Cell Lines PC-3, DU145 and LNCaP” (PLoS ONE, 2013).
